# Data reported in PubChem BioAssay AID248 (DTP/NCI, 2004).
# Where “and” joins values, the source holds several entries; their conditions need not be identical. Equal values may be shown once. Toxic doses and inconclusive results are not listed.
# Tested on: L1210 leukemia ip in BDF1 mice, survival T/C
# Assay: NCI In Vivo Anticancer Drug Screen. Data for tumor model L1210 Leukemia (intraperitoneal) in B6D2F1 (BDF1) mice
# Settings: endpoint: mean survival time, higher = longer survival
# In short: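 Antitumor effect is assessed in tumor-bearing animals. Survival in the compound arm is compared with a vehicle-dosed control arm and expressed as their quotient.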
# [1] = dose: 100.0 mg/kg/injection, schedule: Q01DX009 (ip), vehicle: Klucel (hydroxypropylcellulose) (HPC)
# [2] = dose: 100.0 mg/kg/injection, schedule: Q04DX003 (ip), vehicle: Klucel (hydroxypropylcellulose) (HPC)
# [3] = dose: 200.0 mg/kg/injection, schedule: Q01DX009 (ip), vehicle: Klucel (hydroxypropylcellulose) (HPC)
# [4] = dose: 400.0 mg/kg/injection, schedule: Q01DX009 (ip), vehicle: Klucel (hydroxypropylcellulose) (HPC)
# [5] = dose: 100.0 mg/kg/injection, schedule: Q04DX002 (ip), vehicle: Klucel (hydroxypropylcellulose) (HPC)
smiles,measurement,setting,value
Nc1cc(Cl)c2[nH]cnc2n1,T/C,"dose: 33.0 mg/kg/injection, schedule: Q01DX009 (ip), vehicle: Klucel (hydroxypropylcellulose) (HPC)",179 % of control
same,T/C,"dose: 50.0 mg/kg/injection, schedule: Q01DX009 (ip), vehicle: Klucel (hydroxypropylcellulose) (HPC)",151 % of control and 159 % of control
same,T/C,"dose: 75.0 mg/kg/injection, schedule: Q01DX009 (ip), vehicle: Klucel (hydroxypropylcellulose) (HPC)",161 % of control
same,T/C,"dose: 100.0 mg/kg/injection, schedule: Q01DX001 (ip), vehicle: Klucel (hydroxypropylcellulose) (HPC)",118 % of control
same,T/C,[1],97 % of control
same,T/C,"dose: 133.0 mg/kg/injection, schedule: Q01DX001 (ip), vehicle: Klucel (hydroxypropylcellulose) (HPC)",119 % of control
same,T/C,"dose: 200.0 mg/kg/injection, schedule: Q01DX001 (ip), vehicle: Klucel (hydroxypropylcellulose) (HPC)",121 % of control
same,T/C,"dose: 300.0 mg/kg/injection, schedule: Q01DX001 (ip), vehicle: Klucel (hydroxypropylcellulose) (HPC)",122 % of control
COc1ccccc1NC(=O)Nc1ccc(Nc2ccccc2)cc1,T/C,[1],101 % of control
same,T/C,[2],103 % of control
same,T/C,[3],104 % of control
same,T/C,"dose: 200.0 mg/kg/injection, schedule: Q04DX003 (ip), vehicle: Klucel (hydroxypropylcellulose) (HPC)",91 % of control
same,T/C,[4],104 % of control
same,T/C,"dose: 400.0 mg/kg/injection, schedule: Q04DX003 (ip), vehicle: Klucel (hydroxypropylcellulose) (HPC)",97 % of control
CC1(C)OC2C3COc4nc5c(N)ncnc5n4C(O3)C2O1 (stereo not drawn),T/C,"dose: 100.0 mg/kg/injection, schedule: Q01DX001 (ip), vehicle: steriod suspending solution",112 % of control
same,T/C,"dose: 200.0 mg/kg/injection, schedule: Q01DX001 (ip), vehicle: steriod suspending solution",101 % of control
same,T/C,"dose: 400.0 mg/kg/injection, schedule: Q01DX001 (ip), vehicle: steriod suspending solution",98 % of control
Cc1cc(C)c(C2CC3CCC2C3)cc1N (stereo not drawn),T/C,"dose: 25.0 mg/kg/injection, schedule: Q04DX002 (ip), vehicle: Klucel (hydroxypropylcellulose) (HPC)",100 % of control
same,T/C,"dose: 50.0 mg/kg/injection, schedule: Q04DX002 (ip), vehicle: Klucel (hydroxypropylcellulose) (HPC)",100 % of control
same,T/C,[5],100 % of control
same,T/C,[2],90 % of control
same,T/C,"dose: 200.0 mg/kg/injection, schedule: Q04DX002 (ip), vehicle: saline",96 % of control
O=C(NCc1ccc(Cl)c(Cl)c1)Nc1ccccc1F,T/C,[1],101 % of control
same,T/C,[5],102 % of control
same,T/C,[3],104 % of control
same,T/C,"dose: 200.0 mg/kg/injection, schedule: Q04DX002 (ip), vehicle: Klucel (hydroxypropylcellulose) (HPC)",105 % of control
same,T/C,[4],101 % of control
same,T/C,"dose: 400.0 mg/kg/injection, schedule: Q04DX002 (ip), vehicle: Klucel (hydroxypropylcellulose) (HPC)",97 % of control
